In PMC10419252, “Synthesis, Properties, and Biomedical Application of Dicationic Gemini Surfactants with Dodecane Spacer and Carbamate Fragments” (International Journal of Molecular Sciences, 2023):
Values after ≈ are worked out from the molar mass of the structure shown.

Key:
[1] = alkyltrimethylammonium bromides; cited from earlier work
[2] = test system: methicillin-resistant S. aureus MRSA-1 (resistant to fluoroquinolones and beta-lactams); conditions: cited from earlier work
[3] = test system: Candida albicans ATCC 10231; experiment: Antifungal activity (Ca); type: cell-based; conditions: Candida albicans, ATCC10231
Protocol: (§1) The antimicrobial activity of the compounds was tested on Gram-positive Staphylococcus aureus ATCC 6538P FDA 209P (Sa), Bacillus cereus ATCC 10702 NCTC 8035 (Bc), Enterococcus faecalis ATCC 29212 (Ef), and Gram-negative bacteria Escherichia coli ATCC 25922 (Ec), Pseudomonas aeruginosa ATCC 9027 (Pa), including methicillin-resistant strains of S. aureus MRSA-1 (resistant to fluoroquinolones and beta-lactams) and MRSA-2 (resistant to beta-lactams). Antifungal activity was studied against Candida albicans ATCC 10231 (Ca), Trichophyton mentagrophytes var. gypseum 1773 (Tm), and Aspergillus niger BKMF-1119 (An). A more detailed description of the experiment is published in [21].

[4] = test system: Trichophyton mentagrophytes var. gypseum 1773; experiment: Antifungal activity (Tm); type: cell-based; conditions: Trichophyton mentagrophytes
Protocol: as §1

[5] = test system: Aspergillus niger BKMF-1119; experiment: Antifungal activity (An); type: cell-based; conditions: Aspergillus niger, BKMF1119
Protocol: as §1

For CCCCCCCCCCCCCC[N+](C)(C)C.[Br-] [C14TAB], the Nagg [1] is listed as 70.

For CCCCCCCCCCCCCCCC[N+](C)(C)C.[Br-] [C16TAB], the Nagg [1] is given as 89.

For O=C(O)c1cn(C2CC2)c2cc(N3CCNCC3)c(F)cc2c1=O [Ciprofloxacin], the “effectiveness toward MRSA-1 compared with 10-12-10(Et)” value [2] is given as “two orders of magnitude less effective”.

Work on CC(=O)N1CCN(c2ccc(OCC3COC(Cn4ccnc4)(c4ccc(Cl)cc4Cl)O3)cc2)CC1 (stereo not drawn) [Ketoconazole, reference compound] yielded an MFC ([3]; read-out: MFC, Ca) of 3.9 ± 0.3 µg/mL (≈ 7.34 µM), an MIC ([3]; read-out: MIC, Ca) of 3.9 ± 0.3 µg/mL (≈ 7.34 µM) and an MFC ([4]; read-out: MFC, Tm) of 3.9 ± 0.3 µg/mL (≈ 7.34 µM). It also gave an MIC ([4]; read-out: MIC, Tm) of 3.9 ± 0.3 µg/mL (≈ 7.34 µM), an MFC ([5]; read-out: MFC, An) of 125 ± 10 µg/mL (≈ 235 µM) and an MIC ([5]; read-out: MIC, An) of 15.6 ± 1.3 µg/mL (≈ 29.4 µM).
